In ChEMBL document CHEMBL1126956, “Synthesis and biological evaluation of cholecystokinin analogs in which the Asp-Phe-NH2 moiety has been replaced by a 3-amino-7-phenylheptanoic acid or a 3-amino-6-(phenyloxy)hexanoic acid” (J Med Chem, 1993):
Where a SMILES comes first, the peptide text is derived from it. [ ]: non-standard residue; d: D form. The star is where a group is joined. sY = N[C@@H](Cc1ccc(OS(=O)(=O)O)cc1)C(=O)O; NHPhenethyl = c1ccc(CCN*)cc1; OCH2CH2Ph = c1ccc(CCO*)cc1; Nle = CCCC[C@H](N)C(=O)O; Boc = CC(C)(C)OC(=O)*

What was measured:
[1] = target: T1, Gastrin/cholecystokinin type B receptor (Homo sapiens, UniProt P32239); experiment: Inhibition of [125I]BH-CCK- binding to cholecystokinin type B receptor from jurkat Tcells; assay type: cell-based
T1 sequence (P32239 whole entry): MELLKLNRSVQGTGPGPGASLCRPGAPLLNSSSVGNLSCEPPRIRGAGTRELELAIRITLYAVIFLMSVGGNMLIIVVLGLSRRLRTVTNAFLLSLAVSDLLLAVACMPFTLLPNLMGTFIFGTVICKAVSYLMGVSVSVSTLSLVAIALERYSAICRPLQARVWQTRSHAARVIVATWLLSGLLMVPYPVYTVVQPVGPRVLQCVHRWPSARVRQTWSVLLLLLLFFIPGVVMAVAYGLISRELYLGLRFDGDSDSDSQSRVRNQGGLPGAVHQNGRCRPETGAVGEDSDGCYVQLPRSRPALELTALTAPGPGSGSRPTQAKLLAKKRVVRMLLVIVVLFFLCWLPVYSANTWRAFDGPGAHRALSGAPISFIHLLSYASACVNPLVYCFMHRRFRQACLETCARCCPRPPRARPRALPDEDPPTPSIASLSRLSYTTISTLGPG

[2] = target: Gastrin/cholecystokinin type B receptor (Cavia porcellus); experiment: Inhibition of [125I]BH-CCK- binding to cholecystokinin type B receptor from guinea pig brain membranes
[3] = target: Cholecystokinin receptor type A (Rattus norvegicus) (UniProt P30551); experiment: Inhibition of [125I]BH-CCK- binding to peripheral cholecystokinin type A receptor from rat pancreatic acini

IC50 [1]	IC50 [2]	IC50 [3]	SMILES
210 nM	–	–	CCCC[C@H](NC(=O)[C@@H](Cc1c[nH]c2ccccc12)NC(=O)CNC(=O)[C@H](CCSC)NC(=O)[C@H](Cc1ccc(OS(=O)(=O)O)cc1)NC(=O)OC(C)(C)C)C(=O)N[C@@H](CC(=O)O)C(=O)OCCc1ccccc1
13 nM	10 nM	30 nM	CCCC[C@H](NC(=O)[C@H](Cc1ccc(OS(=O)(=O)O)cc1)NC(=O)OC(C)(C)C)C(=O)NCC(=O)N[C@@H](Cc1c[nH]c2ccccc12)C(=O)N[C@@H](CCCC)C(=O)N[C@@H](CC(=O)O)C(=O)NCCc1ccccc1 (Boc-[sY][Nle]GW[Nle]D-NHPhenethyl)
2 nM	–	3 nM	CCCC[C@H](NC(=O)[C@H](Cc1ccc(OS(=O)(=O)O)cc1)NC(=O)OC(C)(C)C)C(=O)NCC(=O)N[C@@H](Cc1c[nH]c2ccccc12)C(=O)N[C@@H](CCCC)C(=O)N[C@@H](CC(=O)O)C(=O)OCCc1ccccc1 (Boc-[sY][Nle]GW[Nle]D-OCH2CH2Ph)
